The subject of test [1] is HIV strain D, mutation Y188L in HIV reverse transcriptase. In words: cellular antiviral assay, strain D. The format is cell-based. To be noted: for pEC50 D: strain D, Y188L; for EC50: Human immunodeficiency virus 1, read-out: pEC50 D (converted). From the text:
Strain D contains mutation Y188L in HIV reverse transcriptase, […]

Test [2] relates to HIV strain C, mutation L100I in HIV reverse transcriptase. In words: cellular antiviral assay, strain C. To be noted: for pEC50 C: strain C, L100I; for EC50: Human immunodeficiency virus 1, read-out: pEC50 C (converted). Format: cell-based. From the text:
Strain C contains mutation L100I in HIV reverse transcriptase, […]

Test [3] has as its system HIV strain E, mutations L100I and K103N in HIV reverse transcriptase. In words: cellular antiviral assay, strain E. The format is cell-based. The note with it: for pEC50 E: strain E, L100I and K103N; for EC50: Human immunodeficiency virus 1, read-out: pEC50 E (converted). From the text:
Strain E contains mutations L100I and K103N in HIV reverse transcriptase, […]

The test system of test [4] is wild type HIV-LAI strain (IIIB). The test can be described thus: cellular antiviral assay, strain IIIB. The format is cell-based. To be noted: for EC50: read-out: pEC50 IIIB (converted). From the text: Strain IIIB is wild type HIV-LAI strain
Test [5] concerns HIV strain B, mutation K103N in HIV reverse transcriptase. The test can be described thus: cellular antiviral assay, strain B. The format is cell-based. The note with it: for EC50: Human immunodeficiency virus 1, read-out: pEC50 B (converted). From the text: Strain B contains mutation K103N in HIV reverse transcriptase, […]
Test [6] can be described thus: cellular antiviral assay, strain G. The format is cell-based, HIV. To be noted: Human immunodeficiency virus 1, read-out: pEC50 G (converted).
[7] abbreviates: Human immunodeficiency virus 1, IIIB.

Experimental findings from patent US8575342B2, “HIV inhibiting 5-heterocyclyl pyrimidines” (Tibotech Pharmaceuticals Ltd., priority 2004, dated 2013) are described below.

Like-named read-outs stand apart in the source and are kept apart here.

Take `Cc1cc(C=CC#N)cc(C)c1Nc1nc(Nc2ccc(C#N)cc2)ncc1-c1nc(-c2ccccc2)no1` (mixture of isomers) [Compound 13]: the “pEC50 D” value in test [1] is given as 7. Moreover, the “pEC50 C” value in test [2] is listed as 7.8. The “pEC50 E” value in test [3] is recorded as 7. In test [4] (strain IIIB, wild type HIV-LAI), the “pEC50 IIIB” value amounted to 7.8. Besides, the “pEC50 B” value in test [5] (strain B, K103N) was found to be 7.7.

For the molecule `Cc1cc(/C=C/C#N)cc(C)c1Nc1nc(Nc2ccc(C#N)cc2)ncc1-n1cccc1` [Compound 1], the EC50 was 6.31 nM in test [1]; 1 nM in test [2]; 3.98 nM in test [3]; 1 nM in test [4] (setting [7]); 0.794 nM in test [5]; 1580 nM in test [6].

In the case of `Cc1cc(/C=C/C#N)cc(C)c1Nc1nc(Nc2ccc(C#N)cc2)ncc1-c1cccnc1` [Compound 2], the EC50 is 3.98 nM in test [1]; 2 nM in test [2]; 12.6 nM in test [3]; 0.631 nM in test [4] (setting [7]); 0.631 nM in test [5]; 7940 nM in test [6].

On to `Cc1cc(/C=C/C#N)cc(C)c1Nc1nc(Nc2ccc(C#N)cc2)ncc1-c1ccco1` [Compound 3], for which the EC50 in test [1] was 2.51 nM; in test [2], 0.631 nM; in test [3] it was 3.16 nM; in test [4] (Human immunodeficiency virus 1, strain IIIB, wild type HIV-LAI), 0.631 nM; in test [5] it was 0.794 nM; in test [6], 631 nM.

Regarding `N#C/C=C/c1cc(F)c(Nc2nc(Nc3ccc(C#N)cc3)ncc2-n2cccc2)c(Cl)c1` [Compound 4], the EC50 in test [1] is 12.6 nM; in test [2] it was 0.794 nM; in test [3] it was 3.16 nM; in test [4] (setting [7]), 1 nM; in test [5], 1 nM; in test [6] it was 2510 nM.

Take `Cc1cc(/C=C/C#N)cc(C)c1Nc1nc(Nc2ccc(C#N)cc2)ncc1-c1nc(-c2ccco2)no1` [Compound 15]: the “pEC50 D” value in test [1] stood at 6.2. Further, in test [2], the “pEC50 C” value is 6.7. In test [3], the “pEC50 E” value came out at 4.6. Besides, in test [4] (strain IIIB, wild type HIV-LAI), the “pEC50 IIIB” value came to 7.6.

`Cc1noc(-c2cnc(Nc3ccc(C#N)cc3)nc2Nc2c(C)cc(/C=C/C#N)cc2C)n1` [Compound 16]: the “pEC50 D” value in test [1] is reported as 7.8. The “pEC50 C” value in test [2] was found to be 8.4. Also, in test [3], the “pEC50 E” value turned out to be 7.7. The “pEC50 IIIB” value in test [4] (strain IIIB, wild type HIV-LAI) came to 8.3.

In the case of `Cc1cc(/C=C/C#N)cc(C)c1Nc1nc(Nc2ccc(C#N)cc2)ncc1-c1nc(-c2cccs2)no1` [Compound 17], the “pEC50 D” value in test [1] is listed as 5.7. The “pEC50 C” value in test [2] turned out to be 6.0. The “pEC50 E” value in test [3] is reported as 5.0. Moreover, the “pEC50 IIIB” value in test [4] (strain IIIB, wild type HIV-LAI) is given as 7.0.

Take `Cc1cc(/C=C/C#N)cc(C)c1Nc1nc(Nc2ccc(C#N)cc2)ncc1-c1ncccc1N` [Compound 20]: in test [3], the “pEC50 E” value is listed as 7.1. For the same molecule, in test [4] (strain IIIB, wild type HIV-LAI), the “pEC50 IIIB” value came to 8.7.
